Molecules are shown by their SMILES.

Series [1] is described as follows: Plasma concentration of meropenem in rats after intraduodenal administration. Format: in vivo, rat. As to conditions: control: meropenem reconstituted per manufacturer, ID catheter, saline flush, no Capmul. The procedure: Meropenem was infused as a solution through an intraduodenal catheter followed by 0.2 ml. Capmul chase and a saline flush. The carrier formulation was meropenem in calcium-carrageenen to a final concentration of approximately 55% meropenem by weight. Two rats were dosed through a duodenum catheter and plasma samples were collected through 4 hours post dosage. For comparison purposes, a control group received meropenem reconstituted according to the manufacturers instructions, and infused as a solution through ID catheter followed by a saline flush.
Two fasted rats were dosed through a duodenal catheter and plasma samples were collected through 4 hours post dosage. […] A third rat expired prior to dosage, possibly due to anesthesia required for surgery. Rat #1 expired at 4 hours, possibly due to the effects of prolonged anesthesia and blood collection.

The nature of another series: in vivo. The settings on record: male, Sprague-Dawley, rat, plasma, other: intraduodenal (i.d.).
Series [2] is described as follows: Plasma ceftriaxone (CTX) pharmacokinetics after intraduodenal (i.d.) administration to rats. As to conditions: for BA00 / BA0-4 hr: i.d. 40 mg CTX eq/kg with capmul chase vs i.v. 20 mg CTX/kg.
Description: (§1) At specific time intervals, 0.6 ml of blood was taken from each rat and centrifuged. About 0.2 ml of the blood plasma was then analyzed for CTX by HPLC.
(§2) To determine absorption from the intestine, male Sprague Dawley rats weighing 250-300 g with free access to water were fasted for about 18 hours prior to the experiment. These rats were anesthetized and maintained with Ketamine/Xlazine ((60 mg/kg)/(80 mg/kg)) by intraperitoneal injection. The small intestine was exposed by a midline abdominal incision. A small incision was made in the stomach to insert a polyethylene tube (i.d. 0.76 mm, o.d. 1.22 mm, Clay Adams) toward the duodenum, which was closed at the exposed end by a stopcock to prevent drainage of drug solution from the duodenum. Ceftriaxone and oral formulations of CTX were dissolved in distilled water to achieve a final concentration of 40 mg CTX eq./kg and injected into the duodenum using the tube. Then 0.2 ml mono- and diglyceride mixture (Capmul) was coadministered into the duodenum using the intraduodenal tube. Blood samples were taken with a heparinized syringe through the jugular vein catheter at predetermined intervals.
(§3) The concentration of ceftriaxone in the plasma was determined by HPLC. Blood samples were centrifuged for 5 min at 5,000 rpm and 0.2 ml of plasma was taken into the microtube. 0.2 ml plasma was diluted by 0.2 ml of distilled water, and then 0.8 ml of acetonitrile was added for protein removal. The resulting suspensions were centrifuged for 10 min at 12,000 rpm and 50 μl of the clear supernatant was used for HPLC analysis. […] Percent bioavailability was calculated as follows: % BA=(AUC i.d./AUC i.v.)×(Dose i.v./Dose i.d.)×100
(§4) As a control, about 40 mg/kg of CTX was i.d. co-administered with 0.2 ml of capmul to four rats. […] At specific time intervals, 0.6 ml of blood was taken from each rat and centrifuged. About 0.2 ml of the blood plasma was then analyzed for CTX by HPLC.
The nature of series [3]: Plasma ceftriaxone pharmacokinetics after intravenous administration to rats. The settings on record: i.v. 20 mg CTX/kg, no capmul. The class given is in vivo, rat. The method, then: These rats were anesthetized with 5.0 mg/100 g of pentobarbital by intraperitoneal injection. […] Blood samples were collected through the jugular vein catheter at predetermined time intervals.
For comparison purposes, about 20 mg/kg of CTX was administered (i.v.) to four rats.

Setting [4] is: Table 5, rats, i.d. 40 mg CTX eq/kg, 0.2 ml capmul chase.
The mark [5] stands for this setting: Table 6, rats, i.d. 40 mg CTX eq/kg, 0.2 ml capmul chase.

Description for in vivo: as §1, §2, §3, §4

Regarding `C[C@@H](O)[C@H]1C(=O)N2C(C(=O)O)=C(S[C@@H]3CN[C@H](C(=O)N(C)C)C3)[C@H](C)[C@H]12` [meropenem], in series [1], the absorption result is recorded as “not absorbed” and the blood concentrations result is recorded as “undetectable”.
In “in vivo” (40 mg CTX eq./kg), `CO/N=C(\C(=O)N[C@@H]1C(=O)N2C(C(=O)O)=C(CSc3nc(=O)c(O)nn3C)CS[C@H]12)c1csc(N)n1` [CTX, ceftriaxone] registered a concentration at 30 min of 10000 ng/mL, a concentration at 60 min of 11000 ng/mL, a concentration at 90 min of 9000 ng/mL and a concentration at 120 min of 7000 ng/mL. Besides, in “in vivo” (40 mg CTX eq./kg), the concentration at 180 min came to 6000 ng/mL and the concentration at 240 min amounted to 5000 ng/mL. In the series “in vivo” (40 mg CTX eq/kg), the highest concentration (Cmax) came out at 17200 ng/mL and the Tmax was found to be 1 h. Moreover, in series [2] (Table 5, rats), the BA00 is 13.9% and the BA0-4 hr was determined as 9.4%. Besides, in series [2] (setting [4]), the AUC00 turned out to be 52.3 ± 32.4 μghr/ml and the AUG0-4 hr worked out at 31.7 ± 12.4 μghr/ml. In addition, in series [2] (Table 6, rats), the BA00 turned out to be 13.9% and the BA0-4 hr is 9.4%. In addition, in series [2] (setting [5]), the AUC00 came to 52.3 ± 32.4 μghr/ml, the AUC0-4 hr is 31.7 ± 12.4 μghr/ml and the Cmax worked out at 17200 ng/mL. This compound also had an AUC00 in series [3] (Table 5, rats) of 188.0 ± 6.4 μghr/ml. The AUC00 in series [3] (Table 6, rats) amounted to 188.0 ± 6.4 μghr/ml.

These data come from patent US8303989B2, “Compositions and methods for increasing the oral absorption of antimicrobials” (International Health Management Associates, Inc., priority 2000, dated 2012).
